Assay results: patent US20220306630A1, “AGONISTS OF ROR GAMMAt” (BRISTOL-MYERS SQUIBB COMPANY, priority 2019, published 2022)

What follows are compounds tested against T1, RORgT (Homo sapiens, UniProt P51449) (assay: RORgT Gal4 Luciferase Reporter Gene Assay). Conditions: engineered Jurkat cells overexpressing RORgT (LBD or full length) with Gal4 Luc reporter; 18 hours at 37° C.; 40 μM to 0.67 nM; read-out: RORg_GAL4 EC50.
T1 construct: Gal4 (fusion partner); expressed in transfected cells; host or cells: engineered Jurkat cells (Jurkat pEx/Gal/hRORγ CLBD/HYG pG5luc/blast)
T1 sequence (P51449 267-516): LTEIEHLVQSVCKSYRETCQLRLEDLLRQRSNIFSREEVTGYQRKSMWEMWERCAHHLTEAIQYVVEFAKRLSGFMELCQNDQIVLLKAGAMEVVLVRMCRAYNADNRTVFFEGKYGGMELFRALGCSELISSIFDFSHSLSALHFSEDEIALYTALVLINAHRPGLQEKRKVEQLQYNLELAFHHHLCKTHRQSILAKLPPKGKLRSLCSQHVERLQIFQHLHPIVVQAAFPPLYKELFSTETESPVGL
Format: cell-based
How it was run: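 Cells exposed to compound 18 hours at 37° C, then lysed for luciferase luminescence. Inhibition of constitutive activity expressed as percent reduction of signal window relative to a control compound.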

| Structure (SMILES) | EC50 [nM] |
| --- | --- |
| COCCC(=O)Nc1cc(Cl)c(Oc2ccc(OC)c(C(C)C)c2)c(Cl)c1 [Example 300] | 591 |
| COc1ccc(Oc2c(Cl)ccc(C(=O)NCC3CCCC(O)C3)c2Cl)cc1C(C)C (stereo not shown) [Example 225] | 920 |
| CC(C)c1cc(F)cc(Oc2c(Cl)ccc(C(=O)N3CCC(S(C)(=O)=O)CC3)c2Cl)c1 [Example 264] | 39 |
| COc1ccc(Oc2c(Cl)ccc(C(=O)NCCc3ccccc3Cl)c2Cl)cc1C(C)C [Example 199] | 3890 |
| COc1ccc(Oc2c(Cl)ccc(C(=O)NCC3CCN(S(C)(=O)=O)CC3)c2Cl)cc1C(C)C [Example 86] | 12 |
| CC(C)c1cc(F)cc(Oc2c(Cl)cc(NC(=O)CC3CCN(S(C)(=O)=O)CC3)cc2Cl)c1 [Example 258] | 19 |
| COc1ccc(Oc2c(Cl)cc(NC(=O)C[C@H]3CCCN(S(=O)(=O)C(C)C)C3)cc2Cl)cc1C(C)C [Example 321] | 149 |
| COc1ccc(Oc2c(Cl)cc(NC(=O)Cc3cccc(S(N)(=O)=O)c3)cc2Cl)cc1C(C)C [Example 244] | 37 |
| COc1ccc(Oc2c(Cl)ccc(C(=O)NCc3ccc(=O)[nH]c3)c2Cl)cc1C(C)C [Example 227, 2,4-dichloro-3-[4-methoxy-3-(propan-2-yl)phenoxy]-N-[(6-oxo-1,6-dihydropyridin-3-yl)methyl]benzamide] | 109 |
| COc1ccc(Oc2c(Cl)cc(NC(=O)CC3CCCN(S(C)(=O)=O)C3)cc2Cl)cc1C(C)C (single isomer, unassigned) [Example 42, N-(3,5-dichloro-4-(3-isopropyl-4-methoxyphenoxy)phenyl)-2-(1-(methylsulfonyl)piperidin-3-yl)acetamide] | 207 |
| CC1(c2cc(F)cc(Oc3c(Cl)cc(NC(=O)CC4CCN(S(C)(=O)=O)CC4)cc3Cl)c2)CC1 [Example 51, N-(3,5-dichloro-4-(3-fluoro-5-(1-methylcyclopropyl)phenoxy)phenyl)-2-(1-(methylsulfonyl)piperidin-4-yl)acetamide] | 1.7 |
| CS(=O)(=O)N1CCN(CC(=O)Nc2cc(Cl)c(Oc3ccc(F)c(C4CC4)c3)c(Cl)c2)CC1 [Example 271] | 78 |
| COc1ccc(Oc2c(Cl)cc(NC(=O)CN3CC(NS(C)(=O)=O)C3)cc2Cl)cc1C(C)C [Example 163] | 340 |
| COc1ccc(Oc2c(Cl)ccc(C(=O)NC(C)c3ccc(S(C)(=O)=O)cc3)c2Cl)cc1C(C)C (stereo not shown) [Example 105] | 30 |
| COc1ccc(Oc2c(Cl)ccc(C(=O)NCCc3cccnc3)c2Cl)cc1C(C)C [Example 76] | 922 |
| COc1ncc(Oc2c(Cl)ccc(NC(=O)Cc3ccc(S(C)(=O)=O)cc3)c2Cl)cc1C(C)C [Example 23, N-(2,4-dichloro-3-((5-isopropyl-6-methoxypyridin-3-yl)oxy)phenyl)-2-(4-(methylsulfonyl)phenyl)acetamide] | 49 |
| COc1ccc(Oc2c(Cl)ccc(C(=O)Nc3cccc4cnccc34)c2Cl)cc1C(C)C [Example 207] | 63 |
| COc1ccc(Oc2c(Cl)ccc(C(=O)N3CCC(O)(c4ccccc4)CC3)c2Cl)cc1C(C)C [Example 180] | 325 |
| COc1ccc(Oc2c(Cl)cc(NC(=O)CC3CCN(S(C)(=O)=O)CC3)cc2Cl)cc1C(C)C [Example 45, N-(3,5-dichloro-4-(3-isopropyl-4-methoxyphenoxy)phenyl)-2-(1-(methylsulfonyl)piperidin-4-yl)acetamide] | 18 |
| COc1ncc(Oc2c(Cl)ccc(C(=O)NCc3ccc(S(C)(=O)=O)cc3)c2Cl)cc1C(C)(C)F [Example 152] | 2.5 |

| Structure (SMILES) | EC50 [nM] |
| --- | --- |
| COc1ccc(Oc2c(Cl)cc(NC(=O)Cc3cnn(C)c3)cc2Cl)cc1C(C)C [Example 246] | 123 |
| COc1ccc(Oc2c(Cl)cc(NC(=O)CN3CCC[C@H](NS(C)(=O)=O)C3)cc2Cl)cc1C(C)C [Example 168] | 270 |
| COc1ccc(Oc2c(Cl)ccc(CNS(=O)(=O)c3cccnc3)c2Cl)cc1C(C)C [Example 21, N-(2,4-dichloro-3-(3-isopropyl-4-methoxyphenoxy)benzyl)pyridine-3-sulfonamide] | 650 |
| COc1ccc(Oc2c(Cl)ccc(C(=O)N3CCN(c4ccc(Cl)cc4)CC3)c2Cl)cc1C(C)C [Example 230] | 373 |
| COc1ccc(Oc2c(Cl)ccc(C(=O)N3CCC4(CCN(S(C)(=O)=O)CC4)C3)c2Cl)cc1C(C)C [Example 107] | 35 |
| CC(C)c1cc(F)cc(Oc2c(Cl)ccc(C(=O)NCc3ccc(S(N)(=O)=O)cc3)c2Cl)c1 [Example 16, 2,4-dichloro-3-(3-fluoro-5-isopropylphenoxy)-N-(4-sulfamoylbenzyl)benzamide] | 6.1 |
| COc1ccc(Oc2c(Cl)cc(NC(=O)Cc3cncc(C(N)=O)c3)cc2Cl)cc1C(C)C [Example 6, 5-(2-((3,5-dichloro-4-(3-isopropyl-4-methoxyphenoxy)phenyl)amino)-2-oxoethyl)nicotinamide] | 533 |
| CCS(=O)(=O)c1ccccc1CNC(=O)c1cc(Cl)c(Oc2ccc(OC)c(C(C)C)c2)c(Cl)c1 [Example 157] | 939 |
| COc1ccc(Oc2c(Cl)cc(NS(=O)(=O)C(C)C)cc2Cl)cc1C(C)C [Example 305] | 421 |
| COc1ncc(Oc2c(Cl)ccc(C(=O)N3CCC4(CC3)CN(S(C)(=O)=O)C4)c2Cl)cc1C(C)C [Example 118] | 61 |
| COc1ccc(Oc2c(Cl)cc(NS(=O)(=O)C3CC3)cc2Cl)cc1C(C)C [Example 304] | 1080 |
| COc1ccc(Oc2c(Cl)cc(NC(=O)CCCN3CCOCC3)cc2Cl)cc1C(C)C [Example 298] | 727 |
| CCS(=O)(=O)NC1CN(CC(=O)Nc2cc(Cl)c(Oc3ccc(OC)c(C(C)C)c3)c(Cl)c2)C1 [Example 162] | 220 |
| COc1ccc(Oc2c(Cl)cc(NC(=O)CN3CCN(S(=O)(=O)C4CC4)CC3)cc2Cl)cc1C(C)C [Example 315] | 88 |
| COc1ccc(Oc2c(Cl)cc(NC(=O)Cc3cccnc3Cl)cc2Cl)cc1C(C)C [Example 345] | 124 |
| CC(=O)NC[C@H]1CN(c2cc(Cl)c(Oc3cc(F)cc(C(C)C)c3)c(Cl)c2)C(=O)O1 [Example 272] | 260 |
| CC(C)(F)c1cc(F)cc(Oc2c(Cl)ccc(C(=O)NCc3ccc(S(C)(=O)=O)cc3)c2Cl)c1 [Example 338] | 1.8 |
| CCS(=O)(=O)N1CC2(CCN(C(=O)c3ccc(Cl)c(Oc4cc(F)cc(C(C)C)c4)c3Cl)CC2)C1 [Example 124] | 121 |
| COc1ccc(Oc2c(Cl)cc(NC(=O)Cc3ccnc(S(C)(=O)=O)c3)cc2Cl)cc1C(C)C [Example 241] | 64 |

More lines, in order of falling EC50, values ahead:

| EC50 [nM] | Structure (SMILES) |
| --- | --- |
| 4520 | COc1ccc(Oc2c(Cl)cc(NC(=O)c3cnccn3)cc2Cl)cc1C(C)C [Example 294] |
| 2050 | COc1ccc(Oc2c(Cl)cc3[nH]c(-c4ccccc4)nc3c2Cl)cc1C(C)C [Example 35, 4,6-dichloro-5-(3-isopropyl-4-methoxyphenoxy)-2-phenyl-1H-benzo[d]imidazole] |
| 2050 | COc1ccc(Oc2c(Cl)cc(N)cc2Cl)cc1C(C)C [Example 350] |
| 1500 | COc1ccc(Oc2c(Cl)ccc(C(=O)NCCc3ccc(S(N)(=O)=O)cc3)c2Cl)cc1C(C)C [Example 219] |
| 1440 | COc1ccc(Oc2c(F)cc(NC(=O)Cc3cccnc3)cc2F)cc1CC(C)C [Example 312] |
| 1060 | COc1ccc(Oc2c(Cl)cc(NC(=O)NC(C)C)cc2Cl)cc1C(C)C [Example 34, 1-(3,5-dichloro-4-(3-isopropyl-4-methoxyphenoxy)phenyl)-3-isopropylurea] |
| 1050 | COc1ccc(Oc2c(Cl)ccc(C(=O)N(C)C)c2Cl)cc1C(C)C [Example 78] |
| 866 | COc1ccc(Oc2c(Cl)ccc(C(=O)NC3CCN(Cc4ccccc4)C3)c2Cl)cc1C(C)C (stereo not shown) [Example 193] |
| 185 | COc1ccc(Oc2c(Cl)cc(NC(=O)Cn3ccnc3)cc2Cl)cc1C(C)C [Example 302] |
| 139 | CC(C)c1cc(F)cc(Oc2c(Cl)ccc(C(=O)NCc3cnn(S(C)(=O)=O)c3)c2Cl)c1 [Example 128] |
| 77 | COc1ccc(Oc2c(Cl)cc(N3CC(CNC(C)=O)OC3=O)cc2Cl)cc1C(C)C (stereo not shown) [Example 11, N-((3-(3,5-dichloro-4-(3-isopropyl-4-methoxyphenoxy)phenyl)-2-oxooxazolidin-5-yl)methyl)acetamide] |
| 76 | COc1ccc(Oc2c(Cl)cc(NC(=O)C[C@H]3CCCN(S(=O)(=O)C4CC4)C3)cc2Cl)cc1C(C)C [Example 318] |
| 71 | CC(C)c1cc(F)cc(Oc2c(Cl)ccc(C(=O)NC(C)c3ccc(S(C)(=O)=O)cc3)c2Cl)c1 (stereo not shown) [Example 142] |
| 49 | CCS(=O)(=O)N[C@H]1CCCN(CC(=O)Nc2cc(Cl)c(Oc3ccc(OC)c(C(C)C)c3)c(Cl)c2)C1 [Example 172] |
| 39 | COc1ccc(Oc2c(Cl)ccc(C(=O)N(C)Cc3ccc(S(N)(=O)=O)cc3)c2Cl)cc1C(C)C [Example 110] |
| 28 | CC1(c2cc(F)cc(Oc3c(Cl)ccc(C(=O)NCC4CCN(S(C)(=O)=O)CC4)c3Cl)c2)CC1 [Example 52, 2,4-dichloro-3-(3-fluoro-5-(1-methylcyclopropyl)phenoxy)-N-((1-(methylsulfonyl)piperidin-4-yl)methyl)benzamide] |
| 15 | C=C(C)c1cc(Oc2c(Cl)ccc(C(=O)NCC3CCN(S(C)(=O)=O)CC3)c2Cl)cnc1OC [Example 71] |
| 13 | COc1ccc(Oc2c(Cl)ccc(CNC(=O)CN3CCN(S(N)(=O)=O)CC3)c2Cl)cc1C(C)C [Example 90] |
| 6.6 | COc1ncc(Oc2c(Cl)ccc(C(=O)NCc3ccc(S(N)(=O)=O)cc3)c2Cl)cc1C(C)(C)F [Example 154] |
